According to PubChem BioAssay AID248 (DTP/NCI, 2004):
Toxic doses and inconclusive results are not listed. Cut-off read from the data, not from the text of the source: active = T/C of 150% or more; inactive = T/C below 125%.

Test system: L1210 leukemia ip in BDF1 mice, survival T/C
Assay: NCI In Vivo Anticancer Drug Screen. Data for tumor model L1210 Leukemia (intraperitoneal) in B6D2F1 (BDF1) mice
Conditions: endpoint: mean survival time, higher = longer survival
Procedure, shortened: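 Tumor cells were implanted, animals were treated, and survival was followed. The result divides the treated measurement by the vehicle-control measurement.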

[1] = dose: 100.0 mg/kg/injection, schedule: Q01DX009 (ip), vehicle: saline with Tween-80
[2] = dose: 100.0 mg/kg/injection, schedule: Q04DX003 (ip), vehicle: saline with Tween-80
[3] = dose: 200.0 mg/kg/injection, schedule: Q01DX009 (ip), vehicle: saline with Tween-80
[4] = dose: 200.0 mg/kg/injection, schedule: Q04DX003 (ip), vehicle: saline with Tween-80
[5] = dose: 400.0 mg/kg/injection, schedule: Q01DX009 (ip), vehicle: saline with Tween-80
[6] = dose: 400.0 mg/kg/injection, schedule: Q04DX003 (ip), vehicle: saline with Tween-80
[7] = dose: 100.0 mg/kg/injection, schedule: Q04DX002 (ip), vehicle: saline
[8] = dose: 200.0 mg/kg/injection, schedule: Q04DX002 (ip), vehicle: saline
[9] = dose: 100.0 mg/kg/injection, schedule: Q04DX003 (ip), vehicle: Klucel (hydroxypropylcellulose) (HPC)
[10] = dose: 200.0 mg/kg/injection, schedule: Q04DX003 (ip), vehicle: Klucel (hydroxypropylcellulose) (HPC)
[11] = dose: 100.0 mg/kg/injection, schedule: Q01DX009 (ip), vehicle: Klucel (hydroxypropylcellulose) (HPC)
[12] = dose: 200.0 mg/kg/injection, schedule: Q01DX009 (ip), vehicle: Klucel (hydroxypropylcellulose) (HPC)
[13] = dose: 50.0 mg/kg/injection, schedule: Q01DX009 (ip), vehicle: saline
[14] = dose: 100.0 mg/kg/injection, schedule: Q01DX009 (ip), vehicle: saline
[15] = dose: 200.0 mg/kg/injection, schedule: Q01DX009 (ip), vehicle: saline
[16] = dose: 100.0 mg/kg/injection, schedule: Q01DX001 (ip), vehicle: saline
[17] = dose: 200.0 mg/kg/injection, schedule: Q01DX001 (ip), vehicle: saline
[18] = dose: 400.0 mg/kg/injection, schedule: Q01DX001 (ip), vehicle: saline
[19] = dose: 100.0 mg/kg/injection, schedule: Q04DX003 (ip), vehicle: saline
[20] = dose: 200.0 mg/kg/injection, schedule: Q04DX003 (ip), vehicle: saline
[21] = dose: 400.0 mg/kg/injection, schedule: Q04DX003 (ip), vehicle: saline
[22] = dose: 100.0 mg/kg/injection, schedule: Q01DX001 (ip), vehicle: carboxymethylcellulose (CMC)
[23] = dose: 200.0 mg/kg/injection, schedule: Q01DX001 (ip), vehicle: carboxymethylcellulose (CMC)
[24] = dose: 400.0 mg/kg/injection, schedule: Q01DX001 (ip), vehicle: carboxymethylcellulose (CMC)

Measured: T/C

NC(=O)c1nc2n(c1N)CCC2
inactive: [1] 108 % of control | [2] 97 % of control | [3] 110 % of control | [4] 100 % of control | [5] 105 % of control | [6] 94 % of control

CC(=O)NC(C)C(N)=O (stereo unspecified)
inactive: [7] 108 % of control | [8] 105 % of control | dose: 400.0 mg/kg/injection, schedule: Q04DX002 (ip), vehicle: saline 96 % of control

CC1(CCC(=O)O)SCSCS1
inactive: [9] 97 % of control | [10] 90 % of control | dose: 400.0 mg/kg/injection, schedule: Q04DX003 (ip), vehicle: Klucel (hydroxypropylcellulose) (HPC) 92 % of control

O=C(Nc1ccccc1)c1ccco1
inactive: dose: 50.0 mg/kg/injection, schedule: Q01DX009 (ip), vehicle: Klucel (hydroxypropylcellulose) (HPC) 102 % of control | [11] 102 % of control | dose: 100.0 mg/kg/injection, schedule: Q04DX002 (ip), vehicle: Klucel (hydroxypropylcellulose) (HPC) 102 % of control | [12] 100 % of control | dose: 200.0 mg/kg/injection, schedule: Q04DX002 (ip), vehicle: Klucel (hydroxypropylcellulose) (HPC) 98 % of control | dose: 400.0 mg/kg/injection, schedule: Q04DX002 (ip), vehicle: Klucel (hydroxypropylcellulose) (HPC) 91 % of control

CN(C(=O)/C=C/C(=O)O)c1ccccc1
inactive: dose: 25.0 mg/kg/injection, schedule: Q01DX009 (ip), vehicle: saline 104 % of control | [13] 110 % of control | dose: 50.0 mg/kg/injection, schedule: Q04DX003 (ip), vehicle: saline with Tween-80 98 % of control | [14] 105 % of control | [2] 101 % of control | [15] 96 % of control | [4] 95 % of control | [6] 97 % of control

O=C1NC(=O)C2C3OC(C(Br)C3Br)C12 (stereo unspecified)
inactive: dose: 100.0 mg/kg/injection, schedule: Q01DX009 (ip), vehicle: acetone 86 % of control | [2] 93 % of control | dose: 200.0 mg/kg/injection, schedule: Q01DX009 (ip), vehicle: acetone 86 % of control | [4] 108 % of control | dose: 400.0 mg/kg/injection, schedule: Q01DX009 (ip), vehicle: acetone 88 % of control | [6] 95 % of control

CCOC(=O)/C=C1\CCCc2cc(C)c(C)cc21
inactive: dose: 100.0 mg/kg/injection, schedule: Q04DX003 (ip), vehicle: other 105 % of control | dose: 200.0 mg/kg/injection, schedule: Q04DX003 (ip), vehicle: other 94 % of control | dose: 400.0 mg/kg/injection, schedule: Q04DX003 (ip), vehicle: other 104 % of control

COC(=O)C1(C)COP(=O)(N2CC2)OC1 (stereo unspecified)
inactive: [16] 101 % of control | [17] 106 % of control | [18] 95 % of control

Cc1cccc(Cl)[n+]1[O-]
inactive: [19] 97 % of control | [20] 97 % of control | [21] 86 % of control

Cc1ncc(CO)c2c1OC1=CCCCC1=C2
inactive: dose: 100.0 mg/kg/injection, schedule: Q04DX002 (ip), vehicle: saline with Tween-80 95 % of control | dose: 200.0 mg/kg/injection, schedule: Q04DX002 (ip), vehicle: saline with Tween-80 92 % of control

COc1ccc(O)c(CCCO)c1
inactive: dose: 50.0 mg/kg/injection, schedule: Q01DX001 (ip), vehicle: saline 104 % of control | [16] 95 % of control | [17] 112 % of control | [18] 95 % of control

O=C1C=C2CCCCC2C1 (stereo unspecified)
inactive: dose: 50.0 mg/kg/injection, schedule: Q01DX009 (ip), vehicle: saline with Tween-80 100 % of control | [1] 88 % of control

NC(=O)NN=C(CCl)CCl
inactive: [7] 100 % of control | [8] 91 % of control

CC(C)CNS(=O)(=O)c1ncnc2nc[nH]c12
inactive: dose: 6.0 mg/kg/injection, schedule: Q01DX Z (ip), vehicle: carboxymethylcellulose (CMC) 103 % of control | dose: 12.0 mg/kg/injection, schedule: Q01DX Z (ip), vehicle: carboxymethylcellulose (CMC) 100 % of control | dose: 25.0 mg/kg/injection, schedule: Q01DX Z (ip), vehicle: carboxymethylcellulose (CMC) 106 % of control | dose: 50.0 mg/kg/injection, schedule: Q01DX Z (ip), vehicle: carboxymethylcellulose (CMC) 92 % of control

O=C1CC2C(=O)CC1C(C(=O)O)C2C(=O)O (stereo unspecified)
inactive: dose: 75.0 mg/kg/injection, schedule: Q01DX001 (ip), vehicle: saline 102 % of control | dose: 100.0 mg/kg/injection, schedule: Q01DX001 (ip), vehicle: Klucel (hydroxypropylcellulose) (HPC) 103 % of control | dose: 150.0 mg/kg/injection, schedule: Q01DX001 (ip), vehicle: saline 104 % of control | dose: 200.0 mg/kg/injection, schedule: Q01DX001 (ip), vehicle: Klucel (hydroxypropylcellulose) (HPC) 119 % of control | dose: 300.0 mg/kg/injection, schedule: Q01DX001 (ip), vehicle: saline 105 % of control | dose: 400.0 mg/kg/injection, schedule: Q01DX001 (ip), vehicle: Klucel (hydroxypropylcellulose) (HPC) 98 % of control

O=C(Oc1ccccc1[N+](=O)[O-])Oc1ccccc1[N+](=O)[O-]
inactive: [22] 96 % of control | [23] 93 % of control | [24] 104 % of control

CC(C)c1cc(C(C)C)nc(NNc2nc(C(C)C)cc(C(C)C)n2)n1
inactive: [1] 102 % of control | [3] 100 % of control | [5] 98 % of control

Cc1cccnc1NC(=O)NCCCl
inactive: [22] 101 % of control | [11] 92 % of control | [19] 98 % of control | [23] 103 % of control | [12] 93 % of control | [20] 97 % of control | [24] 103 % of control | [21] 89 % of control

COc1cc(/C=C2\CCC/C(=C\c3ccc(O)c(OC)c3)C2=O)ccc1O
inactive: [9] 93 % of control | [10] 87 % of control

COCCc1cccc(C)n1
inactive: [14] 93 % of control | [19] 93 % of control | [15] 92 % of control | [20] 94 % of control | [21] 91 % of control

O=C1CC(=O)c2ccccc21
inactive: [2] 98 % of control | [4] 92 % of control | [6] 93 % of control

ClC1=C(Cl)C2(Cl)CCC1(Cl)C2Cl (stereo unspecified)
inactive: [13] 103 % of control | [14] 98 % of control | [19] 104 % of control | [15] 95 % of control | [20] 103 % of control | [21] 97 % of control

COc1ccc(/C=C2\CS(=O)(=O)C/C(=C\c3ccc(OC)cc3)C2=O)cc1
inactive: [16] 94 % of control | [18] 95 % of control

CC(Cl)(S(=O)c1ccccc1)C1(O)CCCCC1 (stereo unspecified)
inactive: dose: 100.0 mg/kg/injection, schedule: Q03DX002 (ip), vehicle: saline with Tween-80 113 % of control | dose: 200.0 mg/kg/injection, schedule: Q03DX002 (ip), vehicle: saline with Tween-80 102 % of control | dose: 400.0 mg/kg/injection, schedule: Q03DX002 (ip), vehicle: saline with Tween-80 105 % of control
